Results taken from patent US20240207269A1, “USES OF HETEROCYCLIC INHIBITORS OF ERK1/2” (Erasca, Inc., priority 2021, published 2024).

Experiment: First-in-Human (FIH) Phase 1 study comparing QW and QD regimens
Assay type: in vivo
Conditions: QW preferred to QD
Protocol: Both QW and QD regimens were evaluated in the First-in-Human (FIH) Phase 1 study. […] The observed data in indicate that having an uninterrupted coverage over IC90 for 1-2 days can improve cancer cell killing and maintaining Ctrough below IC50 can help normal cell recovery and can improve tolerability.

Cc1cnc(NC2CCOCC2)nc1-n1cnc(C(=O)N[C@H](CN)c2cc(F)cc(Cl)c2)c1 [Compound 1, (S)—N-(2-amino-1-(3-chloro-5-fluorophenyl)ethyl)-1-(5-methyl-2-((tetrahydro-2H-pyran-4-yl)amino)pyrimidin-4-yl)-1H-imidazole-4-carboxamide]
Efficacy, QW regimen compared to QD regimen: better efficacy
Skin toxicities, QW regimen compared to QD regimen: less frequent skin toxicities
